Experimental data: publication PMC7732027 (Bioorganic & medicinal chemistry letters, 2019)

Tested on: influenza A virus PR8-GLuc (H1N1) strain
Type: cell-based

Row | SMILES | decrease of potency versus Pimodivir
1 | Cl.O=C(O)[C@H]1C2CCC(C3CC32)[C@@H]1Nc1nc(-c2c[nH]c3ncc(F)cc23)ncc1F (some centres unmarked) [13b] | 12 times
2 | Cl.O=C(O)C12CC3CC(CC(Nc4nc(-c5c[nH]c6ncc(F)cc56)ncc4F)(C3)C1)C2 [13d] | 230 times
